Assay results from PMC10999543, “Identification of kinase modulators as host-directed therapeutics against intracellular methicillin-resistant Staphylococcus aureus” (Frontiers in Cellular and Infection Microbiology, 2024).
Like-named read-outs stand apart in the source and are kept apart here.

Legend:
HeLa cells = assay: Compound screen by flow cytometry: HeLa cell count as surrogate readout of cell viability (z-scoreHeLa); format: cell-based, human; note: test concentration or dose not given here
How it was run: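 The viability surrogate was the count of fixed HeLa cells by flow cytometry, converted to z-scores against DMSO controls with values deviating two-fold excluded. Before counting, cells had been infected with MRSA for 1 h and cleared of extracellular bacteria with gentamicin. They were then exposed overnight to kinase inhibitors in triplicate.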

intracellular MRSA = format: cell-based, Staphylococcus aureus; conditions: for %GFP+ rep 1 / z-scoreMRSA+ rep 1: replicate 1; for %GFP+ rep 2 / z-scoreMRSA+ rep 2: replicate 2; for %GFP+ rep 3 / z-scoreMRSA+ rep 3: replicate 3; for z-scoreMRSA+ mean: mean of 3 replicates; for %GFP+ rep 1: test concentration or dose not given here; for %GFP+ rep 2: test concentration or dose not given here; for %GFP+ rep 3: test concentration or dose not given here; for effect: test concentration or dose not given here; for z-scoreMRSA+ mean: test concentration or dose not given here; for z-scoreMRSA+ rep 1: test concentration or dose not given here; for z-scoreMRSA+ rep 2: test concentration or dose not given here; for z-scoreMRSA+ rep 3: test concentration or dose not given here
How it was run: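 Values are z-scores: GFP-positive HeLa percentage and event count per well against plate statistics, minus the mean DMSO z-score. Wells deviating two-fold from controls were left out of plate means. Infection was at a mean MOI of 6.8, with an overnight compound exposure.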

[1] = PKIS compound screen raw data, HeLa cell count, replicate 1
[2] = PKIS compound screen raw data, HeLa cell count, replicate 2
[3] = PKIS compound screen raw data, HeLa cell count, replicate 3
[4] = PKIS compound screen, HeLa cell count, mean of 3 replicates
[5] = PKIS compound screen, HeLa cell count, replicate 1
[6] = PKIS compound screen, HeLa cell count, replicate 2
[7] = PKIS compound screen, HeLa cell count, replicate 3
[8] = PKIS compound screen, Yes/No call on z-scoreHeLa
[9] = PKIS compound screen raw data, MRSA-infected HeLa cells
[10] = PKIS compound screen, MRSA-infected HeLa cells
[11] = PKIS compound screen, Yes/No call (effect without cell death)
[12] = PKIS compound screen, Yes/No call on z-scoreMRSA+
[13] = Yes/No: effect without cell death
[14] = compound screen, MRSA-infected HeLa cells
[15] = compound screen, HeLa cell count, mean of 3 replicates
[16] = compound screen, HeLa cell count, replicate 1
[17] = compound screen, HeLa cell count, replicate 2
[18] = compound screen, HeLa cell count, replicate 3
[19] = PKIS compound screen, Yes/No call
[20] = PKIS compound screen, mean of 3 replicates
[21] = PKIS compound screen, replicate 1
[22] = PKIS compound screen, replicate 2
[23] = PKIS compound screen, replicate 3
[24] = PKIS compounds raw data, replicate 1, HeLa cell count
[25] = PKIS compounds raw data, replicate 2, HeLa cell count
[26] = PKIS compounds raw data, replicate 3, HeLa cell count
[27] = PKIS compounds raw data, MRSA-infected HeLa cells

Compound | cell count rep 1 (HeLa cells; [1]) | cell count rep 2 (HeLa cells; [2]) | cell count rep 3 (HeLa cells; [3]) | z-scoreHeLa mean (HeLa cells; [4]) | z-scoreHeLa rep 1 (HeLa cells; [5]) | z-scoreHeLa rep 2 (HeLa cells; [6]) | z-scoreHeLa rep 3 (HeLa cells; [7]) | cell death (HeLa cells; [8]) | %GFP+ rep 1 (intracellular MRSA; [9]) [%] | %GFP+ rep 2 (intracellular MRSA; [9]) [%] | %GFP+ rep 3 (intracellular MRSA; [9]) [%] | z-scoreMRSA+ mean (intracellular MRSA; [10]) | z-scoreMRSA+ rep 1 (intracellular MRSA; [10]) | z-scoreMRSA+ rep 2 (intracellular MRSA; [10]) | z-scoreMRSA+ rep 3 (intracellular MRSA; [10]) | hit (intracellular MRSA; [11]) | effect (intracellular MRSA; [12]) | effect (intracellular MRSA; Yes/No call from z-scoreMRSA+) | hit (intracellular MRSA; [13]) | z-scoreMRSA+ mean (intracellular MRSA; [14]) | also measured
COc1cc2ncn(-c3cc(OCc4ccccc4C(F)(F)F)c(C(=O)N(C)C)s3)c2cc1OC [GSK1030062A] | 10049 | 31389 | 32107 | -1.17 | -1.53 | -0.63 | -1.34 | No | 17.3 | 19.4 | 19.3 | -0.02 | -0.18 | 0.26 | -0.15 | No | No | – | – | – | –
COc1cc2c(Nc3ccc(NC(=O)c4ccccc4)cc3)ncnc2cc1OCCCN1CCOCC1 [GSK301329A] | – | – | – | – | – | – | – | – | 25.2 | 24.6 | 21.9 | – | – | – | – | – | – | No | No | 0.13 | cell death (HeLa cells): No; cell count rep 1 (HeLa cells; human): 4010; cell count rep 2 (HeLa cells; human): 4052; cell count rep 3 (HeLa cells; human): 5236; z-scoreHeLa mean (HeLa cells; human): -0.15; z-scoreHeLa rep 1 (HeLa cells; human): -0.25; z-scoreHeLa rep 2 (HeLa cells; human): -0.19; z-scoreHeLa rep 3 (HeLa cells; human): -0.00157; z-scoreMRSA+ rep 1 (intracellular MRSA; [14]): -0.0173; z-scoreMRSA+ rep 2 (intracellular MRSA; [14]): 0.48; z-scoreMRSA+ rep 3 (intracellular MRSA; [14]): -0.09
CC(C)(C)c1ccc2nccc(Nc3cccc(O)c3)c2c1 [GW856795X] | 35017 | 26624 | 35940 | 0.00181 | 2.26 | -1.52 | -0.73 | No | 14.7 | 17.0 | 17.5 | -0.72 | -1.00 | -0.46 | -0.70 | No | No | – | – | – | –
COc1cc(Nc2nccc(N3CCC(NC(=O)Nc4cccc(C(C)=O)c4)C3)n2)cc(OC)c1OC (stereo not shown) [GSK1379753A] | 28035 | 28667 | 17453 | -0.0237 | -0.37 | 0.58 | -0.29 | No | 19.3 | 19.5 | 18.4 | -0.20 | 0.14 | 0.025 | -0.77 | No | No | – | – | – | –
NS(=O)(=O)c1cccc(-c2cc3ccncc3cc2OCc2ccccc2)c1 [GSK980961A] | 14876 | 28602 | 41262 | -0.61 | -0.80 | -1.15 | 0.12 | No | 13.7 | 14.8 | 15.5 | -1.25 | -1.32 | -1.12 | -1.31 | No | No | – | – | – | –
CN(C)CCOc1ccc(-c2cc(-c3ccc(Cl)c(O)c3)c(-c3ccncc3)[nH]2)cc1.Cl.Cl [SB-684387-B] | 7005 | 6368 | 7752 | – | – | – | – | – | 13.0 | 10.9 | 11.1 | – | – | – | – | – | – | Yes | Yes | -3.01 | cell death (HeLa cells; Yes/No call from z-scoreHeLa): No; z-scoreHeLa mean (HeLa cells; [15]): 1.70; z-scoreHeLa rep 1 (HeLa cells; [16]): 1.91; z-scoreHeLa rep 2 (HeLa cells; [17]): 1.59; z-scoreHeLa rep 3 (HeLa cells; [18]): 1.59; z-scoreMRSA+ rep 1 (intracellular MRSA; [14]): -2.86; z-scoreMRSA+ rep 2 (intracellular MRSA; [14]): -2.84; z-scoreMRSA+ rep 3 (intracellular MRSA; [14]): -3.32
Fc1cc(Cl)ccc1Nc1ccnc2cc(I)ccc12 [GW551191X] | 6255 | 4849 | 6828 | – | – | – | – | – | 27.7 | 23.2 | 23.8 | – | – | – | – | – | – | No | No | 0.40 | cell death (HeLa cells; Yes/No call from z-scoreHeLa): No; z-scoreHeLa mean (HeLa cells; [15]): 0.93; z-scoreHeLa rep 1 (HeLa cells; [16]): 1.37; z-scoreHeLa rep 2 (HeLa cells; [17]): 0.42; z-scoreHeLa rep 3 (HeLa cells; [18]): 1.00; z-scoreMRSA+ rep 1 (intracellular MRSA; [14]): 0.57; z-scoreMRSA+ rep 2 (intracellular MRSA; [14]): 0.14; z-scoreMRSA+ rep 3 (intracellular MRSA; [14]): 0.48
COc1ccc(CNC(=O)NC2CCN(c3ccnc(Nc4cc(OC)c(OC)c(OC)c4)n3)C2)cc1 (stereo not shown) [GSK1379748A] | 5560 | 4556 | 5664 | – | – | – | – | – | 25.5 | 23.4 | 23.0 | – | – | – | – | – | – | No | No | 0.16 | cell death (HeLa cells; Yes/No call from z-scoreHeLa): No; z-scoreHeLa mean (HeLa cells; [15]): 0.45; z-scoreHeLa rep 1 (HeLa cells; [16]): 0.87; z-scoreHeLa rep 2 (HeLa cells; [17]): 0.20; z-scoreHeLa rep 3 (HeLa cells; [18]): 0.27; z-scoreMRSA+ rep 1 (intracellular MRSA; [14]): 0.05; z-scoreMRSA+ rep 2 (intracellular MRSA; [14]): 0.19; z-scoreMRSA+ rep 3 (intracellular MRSA; [14]): 0.24
Cn1cncc1-c1cc2c(Nc3ccc(OCc4ccccc4)cc3)ncnc2cn1 [GW281179X] | 28376 | 11001 | 11278 | -1.41 | -0.31 | -2.45 | -1.49 | No | 19.2 | 17.8 | 19.0 | -0.31 | 0.11 | -0.44 | -0.61 | No | No | – | – | – | cell death (HeLa cells; [19]): No; z-scoreHeLa mean (HeLa cells; [20]): -1.83; z-scoreHeLa rep 1 (HeLa cells; [21]): -2.06; z-scoreHeLa rep 2 (HeLa cells; [22]): -2.65; z-scoreHeLa rep 3 (HeLa cells; [23]): -0.79; cell count rep 1 (HeLa cells; [24]): 2614; cell count rep 2 (HeLa cells; [25]): 2008; cell count rep 3 (HeLa cells; [26]): 4357; effect (intracellular MRSA; [19]): No; z-scoreMRSA+ mean (intracellular MRSA; PKIS compound screen): -0.18; z-scoreMRSA+ rep 1 (intracellular MRSA; PKIS compound screen): -0.25; z-scoreMRSA+ rep 2 (intracellular MRSA; PKIS compound screen): 0.13; z-scoreMRSA+ rep 3 (intracellular MRSA; PKIS compound screen): -0.42; %GFP+ rep 1 (intracellular MRSA; [27]): 25.8%; %GFP+ rep 2 (intracellular MRSA; [27]): 26.7%; %GFP+ rep 3 (intracellular MRSA; [27]): 25.0%
COc1ccc(COc2ccc(Cc3cnc(N)nc3N)cc2OC)cc1 [GW632580X] | 16746 | 34970 | 43497 | -0.0017 | -0.51 | 0.0341 | 0.47 | No | 19.0 | 19.0 | 21.7 | 0.36 | 0.36 | 0.14 | 0.58 | No | No | – | – | – | –
CN(C)c1cc2c(Nc3ccc4c(cnn4Cc4ccccc4)c3)ncnc2cn1 [GW282974X] | – | – | – | – | – | – | – | – | – | – | – | – | – | – | – | No | – | – | – | – | cell death (HeLa cells; [19]): No; z-scoreHeLa mean (HeLa cells; [20]): 1.58; z-scoreHeLa rep 1 (HeLa cells; [21]): 0.95; z-scoreHeLa rep 2 (HeLa cells; [22]): 1.79; z-scoreHeLa rep 3 (HeLa cells; [23]): 2.01; cell count rep 1 (HeLa cells; [24]): 5822; cell count rep 2 (HeLa cells; [25]): 6633; cell count rep 3 (HeLa cells; [26]): 11155; effect (intracellular MRSA; [19]): No; z-scoreMRSA+ mean (intracellular MRSA; PKIS compound screen): -0.84; z-scoreMRSA+ rep 1 (intracellular MRSA; PKIS compound screen): -0.54; z-scoreMRSA+ rep 2 (intracellular MRSA; PKIS compound screen): -0.77; z-scoreMRSA+ rep 3 (intracellular MRSA; PKIS compound screen): -1.21; %GFP+ rep 1 (intracellular MRSA; [27]): 11.5%; %GFP+ rep 2 (intracellular MRSA; [27]): 11.2%; %GFP+ rep 3 (intracellular MRSA; [27]): 11.8%
CCn1cc(-c2ccnc3[nH]ccc23)c(-c2cccc(NC(=O)Nc3ccc(OCc4ccccc4)cc3)c2)n1 [GSK718429A] | – | – | – | – | – | – | – | – | – | – | – | – | – | – | – | – | – | No | No | -0.38 | cell count rep 1 (HeLa cells; [24]): 2721; cell count rep 2 (HeLa cells; [25]): 2140; cell count rep 3 (HeLa cells; [26]): 4945; cell death (HeLa cells; Yes/No call from z-scoreHeLa): No; z-scoreHeLa mean (HeLa cells; [15]): -1.48; z-scoreHeLa rep 1 (HeLa cells; [16]): -1.86; z-scoreHeLa rep 2 (HeLa cells; [17]): -1.61; z-scoreHeLa rep 3 (HeLa cells; [18]): -0.96; %GFP+ rep 1 (intracellular MRSA; [27]): 12.6%; %GFP+ rep 2 (intracellular MRSA; [27]): 13.0%; %GFP+ rep 3 (intracellular MRSA; [27]): 13.2%; z-scoreMRSA+ rep 1 (intracellular MRSA; [14]): -0.18; z-scoreMRSA+ rep 2 (intracellular MRSA; [14]): -0.17; z-scoreMRSA+ rep 3 (intracellular MRSA; [14]): -0.79
